Results reported in PubChem BioAssay AID2060513 (Molecular Pharmacology Branch, DTP, NCI, 2025).
pIC50: −log10 of the molar value.

Tested on: 299254-011-R-J1-PDC complex spheroids viability
Assay: Anticancer human tumor 299254-011-R-J1-PDC patient-derived melanoma cell line growth inhibition [GQUAD]
Conditions: for pIC50: curve of first compound; for viability, T/C: stronger effect = lower value
Description: DNA G-quadruplex Stabilizer Agents in Combinations in Complex Spheroids
A high-throughput screen of multi-cell type tumor spheroids was designed to identify active combinations of DNA G-quadruplex stabilizer agents and targeted small molecules. Complex spheroids include a stromal component modeled by human endothelial cells (HUVEC) and fibroblasts modeled by human mesenchymal stem cells (MSCs). The concentration ranges selected for each drug and investigational agent were based upon clinically achievable concentrations if the clinical Cmax of the agent was known.
Compounds. The drugs and investigational agents: pidnarulex (CX-5461; NSC782164), APTO-253 (NSC789042), BRACO-19 (NSC847499), peposertib (NSC802822), ceralasertib (NSC780249), elimusertib (NSC800525), camonsertib (NSC841442), AZD-1390 (NSC803789), olaparib (NSC753686), talazoparib (NSC767125), ART-558 (NSC835418), sotorasib (NSC818433), MRTX-1133 (NSC836407), SN-38 (NSC673596), topotecan (NSC609699), etoposide (NSC141540), doxorubicin (NSC123127), gemcitabine (NSC613327), 5-fluorouracil (NSC19893), paclitaxel (NSC125973), vemurafenib (NSC761431), panobinostat (NSC761190), R-306465 (JNJ-16241199; NSC773264), adavosertib (NSC754352), TP-3654 (NSC805149), carboplatin (NSC241240), KSQ-4279 (NSC840948), and staurosporine (NSC755774) were obtained from the National Cancer Institute (NCI) Developmental Therapeutics Program Chemical Repository (34). The FDA-approved anticancer drug set is available from the NCI Developmental Therapeutics Program. […] The stock solutions were prepared in dimethyl sulfoxide (DMSO, Sigma-Aldrich, St. Louis, MO, cat. D2650) at 800-fold the tested concentration and stored at -70 degrees C prior to their use. All drugs and investigational agents were tested over a range starting from a high concentration at or near the clinical Cmax and decreasing in half-log increments. If the clinical Cmax for an agent had not been determined, the highest concentration tested was 10 microM.
2.3 Cell Culture. All cells were maintained in an incubator at 37 degrees C and 5% CO2 with 95% humidity. The PDC lines were cultured according to standard operating procedures established by the NCI PDMR. All PDCs were thawed and cultured in Matrigel-coated flasks prepared with a working solution of 1X Ham's F-12 nutrient mix, without supplementation (Invitrogen, cat. 11765054), 100 U/mL penicillin-streptomycin (Invitrogen, cat. 15140122), and 2.5% Matrigel (Corning Inc., cat. 354248) for the first three passages. The 857933-349-R-J2-PDC line was cultured in 6C/Colon 1B media, which includes advanced DMEM/F-12 (Thermo Fisher Scientific, cat. 12634028), 10 mM HEPES (Thermo Fisher Scientific, cat. 15630080), 1X GlutaMAX supplement (Thermo Fisher Scientific, cat. 35050061), 0.1 mg/mL primocin (InvivoGen, cat. ant-pm-2), 10% defined fetal bovine serum, heat inactivated (HyClone Laboratories Inc., cat. SH30070.03HI), 50% L-WRN conditioned media (ATCC, cat. CRL-3276), 1.25 mM N-Acetyl-L-cysteine (Sigma-Aldrich, cat. A9165), 10 mM nicotinamide (Sigma-Aldrich, cat. N0636), 1X B-27 supplement (Thermo Fisher Scientific, cat. 17504044), 1X N-2 supplement (Thermo Fisher Scientific, cat. 17502048), 10 microM Y-27632 dihydrochloride (Tocris Bioscience, cat. 1254), and 50 ng/mL human EGF recombinant protein (Thermo Fisher Scientific, cat. PHG0311). The 485176-168-R4-J1-PDC line was cultured in Panc media, which includes all 6C/Colon 1B media components plus 100 ng/mL human FGF-10 (Thermo Fisher Scientific, cat. 100-26), 500 nM SB-431542 (Selleckchem, cat. S1067), and gastrin (Tocris, cat. 3006).
[…]

[1] = second compound 0.0316 µM, first compound 0.0316 µM
[2] = second compound 0.0316 µM, first compound 0.1 µM
[3] = second compound 0.0316 µM, first compound 0.316 µM
[4] = second compound 0.0316 µM, first compound 1 µM
[5] = second compound 0.0316 µM, first compound 3.16 µM
[6] = second compound 0.0316 µM, first compound 10 µM
[7] = second compound 0.1 µM, first compound 0.0316 µM
[8] = second compound 0.1 µM, first compound 0.1 µM
[9] = second compound 0.1 µM, first compound 0.316 µM
[10] = second compound 0.1 µM, first compound 1 µM
[11] = second compound 0.1 µM, first compound 3.16 µM
[12] = second compound 0.1 µM, first compound 10 µM
[13] = second compound 0.316 µM, first compound 0.0316 µM
[14] = second compound 0.316 µM, first compound 0.1 µM
[15] = second compound 0.316 µM, first compound 0.316 µM
[16] = second compound 0.316 µM, first compound 1 µM
[17] = second compound 0.316 µM, first compound 3.16 µM
[18] = second compound 0.316 µM, first compound 10 µM
[19] = second compound 1 µM, first compound 0.0316 µM
[20] = second compound 1 µM, first compound 0.1 µM
[21] = second compound 1 µM, first compound 0.316 µM
[22] = second compound 1 µM, first compound 1 µM
[23] = second compound 1 µM, first compound 3.16 µM
[24] = second compound 1 µM, first compound 10 µM
[25] = second compound 3.16 µM, first compound 0.0316 µM
[26] = second compound 3.16 µM, first compound 0.1 µM
[27] = second compound 3.16 µM, first compound 0.316 µM
[28] = second compound 3.16 µM, first compound 1 µM
[29] = second compound 3.16 µM, first compound 3.16 µM
[30] = second compound 3.16 µM, first compound 10 µM
[31] = second compound 10 µM, first compound 0.0316 µM
[32] = second compound 10 µM, first compound 0.1 µM
[33] = second compound 10 µM, first compound 0.316 µM
[34] = second compound 10 µM, first compound 1 µM
[35] = second compound 10 µM, first compound 3.16 µM
[36] = second compound 10 µM, first compound 10 µM
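Also: spheroids exposed to the agents for seven days before readout.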
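For viability, T/C in this document: percent viability relative to DMSO vehicle control wells = 100%.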

CC1COCCN1c1cc(C2(O)CC3CCC(C2)O3)c2cnn(-c3ccn[nH]3)c2n1 (centres undefined) + Cc1[nH]c2ccc(F)cc2c1-c1nc2c3cccnc3c3ncccc3c2[nH]1 showed a pIC50 (second compound 0.0316 µM) of 6.90, a pIC50 (second compound 0.1 µM) of 6.87 and a pIC50 (second compound 0.316 µM) of 6.75. It also gave a pIC50 (second compound 1 µM) of 6.90, a pIC50 (second compound 3.16 µM) of 6.96 and a pIC50 (second compound 10 µM) of 7.08. For the same molecule, the viability, T/C [1] was 83.2%, the viability, T/C [2] was 54.7% and the viability, T/C [3] was 31.3%. It also gave a viability, T/C [4] of 14.4%, a viability, T/C [5] of 12.2% and a viability, T/C [6] of 8.75%. The viability, T/C [7] was 72.7%, the viability, T/C [8] was 60.4% and the viability, T/C [9] was 20.7%. For the same molecule, the viability, T/C [10] was 14.7%, the viability, T/C [11] was 14.4% and the viability, T/C [12] was 7.02%. The viability, T/C [13] was 77.3%, the viability, T/C [14] was 76.6% and the viability, T/C [15] was 23.8%. It also gave a viability, T/C [16] of 19.6%, a viability, T/C [17] of 12.6% and a viability, T/C [18] of 7.48%. The viability, T/C [19] was 73.7%, the viability, T/C [20] was 55.8% and the viability, T/C [21] was 30.4%. For the same molecule, the viability, T/C [22] was 22.1%, the viability, T/C [23] was 13.7% and the viability, T/C [24] was 7.91%. It also gave a viability, T/C [25] of 84.5%, a viability, T/C [26] of 52.7% and a viability, T/C [27] of 22.5%. It also gave a viability, T/C [28] of 16%, a viability, T/C [29] of 14% and a viability, T/C [30] of 6.07%. The viability, T/C [31] was 73%, the viability, T/C [32] was 46.9% and the viability, T/C [33] was 21.8%. The viability, T/C [34] was 15.1%, the viability, T/C [35] was 9.33% and the viability, T/C [36] was 4.43%.
With O=c1[nH]cc(F)c(=O)[nH]1 + Cc1cnc(CNC(=O)c2c(=O)c3ccc(N4CCCN(C)CC4)nc3n3c2sc2ccccc23)cn1 the pIC50 (second compound 0.0316 µM) was < 5.00, the pIC50 (second compound 0.1 µM) was < 5.00 and the pIC50 (second compound 0.316 µM) was < 5.00. For the same molecule, the pIC50 (second compound 1 µM) was < 5.00, the pIC50 (second compound 3.16 µM) was < 5.00 and the pIC50 (second compound 10 µM) was 7.50. For the same molecule, the viability, T/C [1] was 90.9%, the viability, T/C [2] was 86% and the viability, T/C [3] was 110%. For the same molecule, the viability, T/C [4] was 84.3%, the viability, T/C [5] was 106% and the viability, T/C [6] was 106%. It also gave a viability, T/C [7] of 92.8%, a viability, T/C [8] of 92.1% and a viability, T/C [9] of 105%. The viability, T/C [10] was 88.1%, the viability, T/C [11] was 99.1% and the viability, T/C [12] was 98.5%. The viability, T/C [13] was 83.7%, the viability, T/C [14] was 123% and the viability, T/C [15] was 99.4%. For the same molecule, the viability, T/C [16] was 88.5%, the viability, T/C [17] was 89.8% and the viability, T/C [18] was 105%. It also gave a viability, T/C [19] of 86.9%, a viability, T/C [20] of 78% and a viability, T/C [21] of 74.8%. The viability, T/C [22] was 92.4%, the viability, T/C [23] was 94.5% and the viability, T/C [24] was 91.3%. For the same molecule, the viability, T/C [25] was 96%, the viability, T/C [26] was 76% and the viability, T/C [27] was 82.5%. For the same molecule, the viability, T/C [28] was 84.2%, the viability, T/C [29] was 95.2% and the viability, T/C [30] was 91.3%. For the same molecule, the viability, T/C [31] was 58.7%, the viability, T/C [32] was 16.9% and the viability, T/C [33] was 57.7%. It also gave a viability, T/C [34] of 65.6%, a viability, T/C [35] of 55.4% and a viability, T/C [36] of 2.68%.
